± gives the expanded uncertainty stated by the source.
Key:
[1] = Liquid; for mass density: 293.15 K, 101.33 kPa, Densimeter; for Normal boiling temperature: Ebulliometric method (Recirculating still)
[2] = refractive index (Na D-line) (dimensionless); details: 293.15 K; 101.33 kPa; Liquid; Standard Abbe refractometry

Row | mass density [1] [kg/m3] | Normal boiling temperature [1] [°C] | refractive index [2] | SMILES
1 | 1100.36 ± 0.14 | 189.03 ± 0.2 | 1.47987 ± 0.00034 | C[S+](C)[O-] [dimethyl sulfoxide]
2 | 964.74 ± 0.12 | 124.48 ± 0.2 | 1.40234 ± 0.00034 | COCCO [2-methoxyethan-1-ol]

Row | SMILES | mass density [1] [kg/m3] | Normal boiling temperature [1] [°C] | refractive index [2]
3 | Cc1ccccc1 [toluene] | 867.02 ± 0.11 | 110.58 ± 0.2 | 1.49678 ± 0.00033

From the NIST ThermoML archive (doi:10.1016/j.fluid.2014.04.025)
